Experimental data as given in ChEMBL document CHEMBL1154149, “Antimalarial pharmacodynamics of chalcone derivatives in combination with artemisinin against Plasmodium falciparum in vitro” (Eur J Med Chem, 2009).

Key:
Plasmodium falciparum [1] = test: Antiplasmodial activity against chloroquine-sensitive Plasmodium falciparum 3D7 infected in type B+ human erythrocytes assessed as inhibition of sorbitol-induced hemolysis at 10 mM after 15 min by spectrophotometry; type: functional; set-up: scale not given: the % may be the effect or the level left
Plasmodium falciparum [2] = test: Antiplasmodial activity against chloroquine-sensitive Plasmodium falciparum 3D7 infected in type B+ human erythrocytes assessed as inhibition of trophozoite stage parasite after 18 hrs followed by incubation in drug-free medium for 48 hrs by stage specific inhibition assay relative to control; type: functional
Plasmodium falciparum [3] = test: Antiplasmodial activity against chloroquine-sensitive Plasmodium falciparum 3D7 infected in type B+ human erythrocytes assessed as inhibition of schizont stage parasite after 12 hrs followed by incubation in drug-free medium for 48 hrs by stage specific inhibition assay relative to control; type: functional
Plasmodium falciparum [4] = test: Antiplasmodial activity against chloroquine-sensitive Plasmodium falciparum 3D7 infected in type B+ human erythrocytes assessed as inhibition of ring stage parasite after 18 hrs followed by incubation in drug-free medium for 48 hrs by stage specific inhibition assay relative to control; type: functional
Plasmodium falciparum [5] = test: Antiplasmodial activity against chloroquine-sensitive Plasmodium falciparum 3D7 infected in type B+ human erythrocytes assessed as reduction of hemozoin formation at IC50 after 48 hrs relative to control; type: functional; set-up: scale not given: the % may be the effect or the level left
Plasmodium falciparum [6] = test: Antiplasmodial activity against chloroquine-sensitive Plasmodium falciparum 3D7 infected in type B+ human erythrocytes assessed as inhibition of sorbitol-induced hemolysis at 10 nM after 15 min by spectrophotometry; type: functional; set-up: scale not given: the % may be the effect or the level left
Plasmodium falciparum [7] = test: Antiplasmodial activity against chloroquine-sensitive Plasmodium falciparum 3D7 infected in type B+ human erythrocytes assessed as inhibition of parasitemia after 48 hrs by Giemsa staining; type: functional, organism-based; conditions: 3D7, 48 h
Plasmodium falciparum [8] = test: Antiplasmodial activity against chloroquine-sensitive Plasmodium falciparum 3D7 infected in type B+ human erythrocytes assessed as inhibition of sorbitol-induced hemolysis at 5 nM after 15 min by spectrophotometry; type: functional; set-up: scale not given: the % may be the effect or the level left
Plasmodium falciparum [9] = test: Antiplasmodial activity against chloroquine-sensitive Plasmodium falciparum 3D7 infected in type B+ human erythrocytes assessed as inhibition of sorbitol-induced hemolysis at 10 uM after 15 min by spectrophotometry; type: functional; set-up: scale not given: the % may be the effect or the level left

SMILES	Activity (Plasmodium falciparum [1]) [%]	inhibition (INH) (Plasmodium falciparum [2]) [%]	inhibition (INH) (Plasmodium falciparum [3]) [%]	inhibition (INH) (Plasmodium falciparum [4]) [%]	Activity (Plasmodium falciparum [5]) [%]	further results
O=C(/C=C/c1ccc(Cl)cc1)c1ccc(-n2cccc2)cc1	85.9	61.5	48.9	51.4	48.8	–
CCc1nc(N)nc(N)c1-c1ccc(Cl)cc1 [PYRIMETHAMINE]	–	–	–	–	56.3	Activity (Plasmodium falciparum [6]): 92.2%
O=C(/C=C/c1ccc(Cl)cc1)c1ccc(-n2cncn2)cc1	36.1	65.8	40.1	48.7	47.8	–
C[C@@H]1CC[C@H]2[C@@H](C)C(=O)O[C@@H]3O[C@@]4(C)CC[C@@H]1[C@]32OO4 [ARTEMISININ]	–	–	–	–	48.3	IC50 (Plasmodium falciparum [7]): 4 nM; Activity (Plasmodium falciparum [8]): 90.9%
O=C(/C=C/c1ccc(Cl)cc1)c1ccc(-n2nnc3ccccc32)cc1	90	70.9	41	47.9	47.7	–
NS(=O)(=O)c1cc(C(=O)O)c(NCc2ccco2)cc1Cl [FUROSEMIDE]	–	–	–	–	–	Activity (Plasmodium falciparum [9]): 56.3%
C=CC(C)(C)c1cc(/C=C/C(=O)c2ccc(O)cc2)c(OC)cc1O [LICOAGROCHACONE A]	–	–	–	–	–	IC50 (Plasmodium falciparum [7]): 4.2 nM
